Test results as given in PubChem BioAssay AID226 (DTP/NCI, 2004).
Values joined by “and” are separate entries in the source; they are usually repeats but may differ in a detail not shown here. Equal values may be shown once. Inconclusive results and toxic doses are left out.

Tested on: B6C3F1 mice, intracerebral ependymoblastoma, median survival T/C
Test: NCI In Vivo Anticancer Drug Screen. Data for tumor model Ependymoblastoma (intracerebral) in B6C3F1 mice
Settings: endpoint: median survival time, higher = longer survival
Method: The antitumor activity of compounds was measured in mice bearing transplantable tumors. Survival or tumor size were measured and the results are expressed as the measurement made in the treated group (T) divided by the measurement made in the vehicle treated control group (C). The tumor model used in this assay is Ependymoblastoma (intracerebral) in B6C3F1 mice

[1] = dose: 8.0 mg/kg/injection, schedule: Q01DX005 (ip), vehicle: Klucel (hydroxypropylcellulose) (HPC)
[2] = dose: 16.0 mg/kg/injection, schedule: Q01DX005 (ip), vehicle: Klucel (hydroxypropylcellulose) (HPC)
[3] = dose: 32.0 mg/kg/injection, schedule: Q01DX005 (ip), vehicle: Klucel (hydroxypropylcellulose) (HPC)
[4] = dose: 64.0 mg/kg/injection, schedule: Q01DX005 (ip), vehicle: Klucel (hydroxypropylcellulose) (HPC)
[5] = dose: 128.0 mg/kg/injection, schedule: Q01DX005 (ip), vehicle: Klucel (hydroxypropylcellulose) (HPC)
[6] = dose: 256.0 mg/kg/injection, schedule: Q01DX005 (ip), vehicle: Klucel (hydroxypropylcellulose) (HPC)
[7] = dose: 8.0 mg/kg/injection, schedule: Q01DX005 (ip), vehicle: saline
[8] = dose: 16.0 mg/kg/injection, schedule: Q01DX005 (ip), vehicle: saline
[9] = dose: 32.0 mg/kg/injection, schedule: Q01DX005 (ip), vehicle: saline
[10] = dose: 64.0 mg/kg/injection, schedule: Q01DX005 (ip), vehicle: saline
[11] = dose: 128.0 mg/kg/injection, schedule: Q01DX005 (ip), vehicle: saline

CCC(=O)O[C@H]1CC[C@H]2[C@@H]3CC[C@H]4CC(=O)[C@H](C)C[C@]4(C)[C@H]3CC[C@]12C
T/C [1]: 95 % of control and 102 % of control
T/C (dose: 8.0 mg/kg/injection, schedule: Q01DX005 (ip), vehicle: saline with Tween-80): 98 % of control and 108 % of control
T/C [2]: 90 % of control and 101 % of control
T/C (dose: 16.0 mg/kg/injection, schedule: Q01DX005 (ip), vehicle: saline with Tween-80): 95 % of control and 96 % of control
T/C [3]: 97 % of control and 99 % of control
T/C (dose: 32.0 mg/kg/injection, schedule: Q01DX005 (ip), vehicle: saline with Tween-80): 103 % of control and 107 % of control
T/C [4]: 95 % of control and 101 % of control
T/C (dose: 64.0 mg/kg/injection, schedule: Q01DX005 (ip), vehicle: saline with Tween-80): 98 % of control and 111 % of control
T/C [5]: 98 % of control and 87 % of control
T/C (dose: 128.0 mg/kg/injection, schedule: Q01DX005 (ip), vehicle: saline with Tween-80): 106 % of control and 108 % of control
T/C [6]: 93 % of control and 87 % of control
T/C (dose: 256.0 mg/kg/injection, schedule: Q01DX005 (ip), vehicle: saline with Tween-80): 97 % of control and 113 % of control
T/C (dose: 512.0 mg/kg/injection, schedule: Q01DX005 (ip), vehicle: Klucel (hydroxypropylcellulose) (HPC)): 87 % of control
T/C (dose: 512.0 mg/kg/injection, schedule: Q01DX005 (ip), vehicle: saline with Tween-80): 97 % of control and 101 % of control

COc1ccc(C[C@H](N)C(=O)NC2C(CO)OC(n3cnc4c(N(C)C)ncnc43)C2O)cc1 (stereo partly drawn)
T/C [7]: 101 % of control
T/C [8]: 101 % of control
T/C [9]: 103 % of control
T/C [10]: 94 % of control
T/C [11]: 102 % of control

NC(=S)c1cn(C2OC(CO)C(O)C2O)c2ncnc(N)c12 (stereo not drawn)
T/C (dose: 1.88 mg/kg/injection, schedule: Q01DX005 (ip), vehicle: suspension in saline): 94 % of control
T/C (dose: 3.75 mg/kg/injection, schedule: Q01DX005 (ip), vehicle: suspension in saline): 97 % of control
T/C (dose: 7.5 mg/kg/injection, schedule: Q01DX005 (ip), vehicle: suspension in saline): 108 % of control

Cc1cc2nc3ccc(N)cc3oc-2cc1=[N+](C)C
T/C (dose: 6.25 mg/kg/injection, schedule: Q01DX005 (ip), vehicle: saline): 106 % of control
T/C (dose: 12.5 mg/kg/injection, schedule: Q01DX005 (ip), vehicle: saline): 105 % of control
T/C (dose: 25.0 mg/kg/injection, schedule: Q01DX005 (ip), vehicle: saline): 102 % of control
T/C (dose: 50.0 mg/kg/injection, schedule: Q01DX005 (ip), vehicle: saline): 91 % of control

C[n+]1c2ccccc2nc2c(N)cc(N)cc21
T/C (dose: 4.0 mg/kg/injection, schedule: Q01DX005 (ip), vehicle: saline): 100 % of control and 101 % of control
T/C [7]: 101 % of control and 102 % of control
T/C [8]: 103 % of control and 108 % of control
T/C [9]: 103 % of control and 114 % of control

CSc1nc(N)nc2c1ncn2C1OC(CO)C(O)C1O (stereo not drawn)
T/C (dose: 50.0 mg/kg/injection, schedule: Q01DX005 (ip), vehicle: suspension in saline): 108 % of control
T/C (dose: 100.0 mg/kg/injection, schedule: Q01DX005 (ip), vehicle: suspension in saline): 109 % of control
T/C (dose: 200.0 mg/kg/injection, schedule: Q01DX005 (ip), vehicle: suspension in saline): 100 % of control
T/C (dose: 400.0 mg/kg/injection, schedule: Q01DX005 (ip), vehicle: suspension in saline): 96 % of control

CO[C@H]1C[C@@H]2CC[C@@H](C)[C@@](O)(O2)C(=O)C(=O)N2CCCC[C@H]2C(=O)O[C@H]([C@H](C)C[C@@H]2CC[C@@H](O)[C@H](OC)C2)CC(=O)[C@H](C)C=C(C)[C@@H](O)[C@@H](OC)C(=O)[C@H](C)C[C@H](C)/C=C/C=C/C=C1C
T/C (dose: 3.12 mg/kg/injection, schedule: Q01DX009 (ip), vehicle: clinical formulation): 118 % of control
T/C (dose: 6.25 mg/kg/injection, schedule: Q01DX005 (ip), vehicle: saline with Tween-80): 113 % of control
T/C (dose: 12.5 mg/kg/injection, schedule: Q01DX009 (ip), vehicle: gum acacia): 202 % of control
T/C (dose: 25.0 mg/kg/injection, schedule: Q01DX005 (oral), vehicle: saline with Tween-80): 106 % of control
T/C (dose: 25.0 mg/kg/injection, schedule: Q01DX009 (ip), vehicle: clinical formulation): 156 % of control
T/C (dose: 25.0 mg/kg/injection, schedule: Q01DX009 (ip), vehicle: gum acacia): 198 % of control
T/C (dose: 50.0 mg/kg/injection, schedule: Q01DX005 (oral), vehicle: saline with Tween-80): 107 % of control and 108 % of control
T/C (dose: 50.0 mg/kg/injection, schedule: Q01DX009 (ip), vehicle: clinical formulation): 152 % of control and 156 % of control
T/C (dose: 50.0 mg/kg/injection, schedule: Q01DX009 (ip), vehicle: gum acacia): 177 % of control
T/C (dose: 100.0 mg/kg/injection, schedule: Q01DX005 (oral), vehicle: saline with Tween-80): 100 % of control and 107 % of control
T/C (dose: 100.0 mg/kg/injection, schedule: Q01DX009 (ip), vehicle: clinical formulation): 162 % of control and 167 % of control
T/C (dose: 100.0 mg/kg/injection, schedule: Q01DX009 (ip), vehicle: gum acacia): 185 % of control
T/C (dose: 200.0 mg/kg/injection, schedule: Q01DX005 (ip), vehicle: saline with Tween-80): 113 % of control and 193 % of control and 207 % of control
T/C (dose: 200.0 mg/kg/injection, schedule: Q01DX005 (oral), vehicle: saline with Tween-80): 103 % of control and 108 % of control
T/C (dose: 400.0 mg/kg/injection, schedule: Q01DX005 (oral), vehicle: saline with Tween-80): 108 % of control and 119 % of control
T/C (dose: 400.0 mg/kg/injection, schedule: Q01DX009 (ip), vehicle: gum acacia): 198 % of control
T/C (dose: 800.0 mg/kg/injection, schedule: Q01DX005 (oral), vehicle: saline with Tween-80): 124 % of control

COc1cc2cc3c4cc(OC)c(OC)cc4cc[n+]3c(C)c2cc1OC (tested in a mixture with another compound)
T/C [8]: 94 % of control and 98 % of control and 111 % of control
T/C [9]: 100 % of control (2×) and 120 % of control
T/C [10]: 102 % of control and 105 % of control and 118 % of control
T/C [11]: 104 % of control and 109 % of control
T/C (dose: 256.0 mg/kg/injection, schedule: Q01DX005 (ip), vehicle: saline): 106 % of control

CC(=O)O[C@]1(C(C)=O)CC[C@H]2[C@@H]3C[C@H](C)C4=CC(=O)CC[C@]4(C)[C@H]3CC[C@@]21C
T/C [1]: 96 % of control and 104 % of control
T/C [2]: 101 % of control and 122 % of control
T/C [3]: 101 % of control and 112 % of control
T/C [4]: 92 % of control and 97 % of control
T/C [5]: 95 % of control and 98 % of control
T/C [6]: 94 % of control and 97 % of control

Nc1ncn(C2OC(CO)C(O)C2O)c(=O)n1 (stereo not drawn)
T/C (dose: 0.59 mg/kg/injection, schedule: Q03HX024 (ip), vehicle: saline): 111 % of control
T/C (dose: 0.75 mg/kg/injection, schedule: Q01DX005 (ip), vehicle: saline): 116 % of control
T/C (dose: 1.17 mg/kg/injection, schedule: Q03HX024 (ip), vehicle: saline): 109 % of control
T/C (dose: 1.5 mg/kg/injection, schedule: Q01DX005 (ip), vehicle: saline): 109 % of control
T/C (dose: 2.34 mg/kg/injection, schedule: Q03HX024 (ip), vehicle: saline): 116 % of control
T/C (dose: 3.0 mg/kg/injection, schedule: Q01DX005 (ip), vehicle: saline): 116 % of control
T/C (dose: 9.38 mg/kg/injection, schedule: Q03HX024 (ip), vehicle: saline): 154 % of control

COc1ccc2c(c1)CCC(c1ccccc1)=C2c1ccc(OCCN2CCCC2)cc1
T/C [1]: 106 % of control
T/C (dose: 12.0 mg/kg/injection, schedule: Q01DX005 (ip), vehicle: saline with Tween-80): 108 % of control
T/C [2]: 106 % of control
T/C (dose: 24.0 mg/kg/injection, schedule: Q01DX005 (ip), vehicle: saline with Tween-80): 110 % of control
T/C [3]: 110 % of control
T/C (dose: 48.0 mg/kg/injection, schedule: Q01DX005 (ip), vehicle: saline with Tween-80): 104 % of control
T/C [4]: 101 % of control
T/C (dose: 96.0 mg/kg/injection, schedule: Q01DX005 (ip), vehicle: saline with Tween-80): 107 % of control

CC(=O)CC(c1ccccc1)c1c(O)c2ccccc2oc1=O (stereo not drawn)
T/C (dose: 0.05 mg/kg/injection, schedule: Q01DX005 (ip), vehicle: Klucel (hydroxypropylcellulose) (HPC)): 113 % of control
T/C (dose: 0.1 mg/kg/injection, schedule: Q01DX005 (ip), vehicle: Klucel (hydroxypropylcellulose) (HPC)): 100 % of control and 108 % of control
T/C (dose: 0.2 mg/kg/injection, schedule: Q01DX005 (ip), vehicle: Klucel (hydroxypropylcellulose) (HPC)): 105 % of control and 110 % of control
T/C (dose: 0.4 mg/kg/injection, schedule: Q01DX005 (ip), vehicle: Klucel (hydroxypropylcellulose) (HPC)): 98 % of control and 104 % of control
T/C (dose: 0.8 mg/kg/injection, schedule: Q01DX005 (ip), vehicle: Klucel (hydroxypropylcellulose) (HPC)): 101 % of control and 88 % of control
T/C (dose: 1.6 mg/kg/injection, schedule: Q01DX005 (ip), vehicle: Klucel (hydroxypropylcellulose) (HPC)): 98 % of control
